Holding throughout (assay type): biochemical
In one assay the target is MMP-13CD (Homo sapiens, UniProt P45452). The assay can be described thus: thiopeptolide hydrolysis assay, catalytic domain of collagenase 3. To be noted: thiopeptolide substrate, HEPES pH 7.0, 22° C. The source says: (§1) The assays measure the amount by which a test compound reduces the hydrolysis of a thiopeptolide substrate catalyzed by a matrix metalloproteinase enzyme. Such assays are described in detail by Ye et al., in Biochemistry, 1992;31(45):11231-11235, which is incorporated herein by reference.
(§2) Thiopeptolide substrates show virtually no decomposition or hydrolysis at or below neutral pH in the absence of a matrix metalloproteinase enzyme. A typical thiopeptolide substrate commonly utilized for assays is Ac-Pro-Leu-Gly-thioester-Leu-Leu-Gly-OEt. A 100 μL assay mixture will contain 50 mM of N-2-hydroxyethylpiperazine-N′-2-ethanesulfonic acid buffer (“HEPES”) at pH 7.0, 10 mM CaCl2, 100 μM thiopeptolide substrate, and 1 mM 5,5′-dithio-bis-(2-nitro-benzoic acid) (DTNB). The thiopeptolide substrate concentration may be varied from, for example, 10 to 800 μM to obtain Km and Kcat values. The change in absorbance at 405 nm is monitored on a Thermo Max microplate reader (Molecular Devices, Menlo Park, Calif.) at room temperature (22° C.). The calculation of the amount of hydrolysis of the thiopeptolide substrate is based on E412=13600 M^−1 cm^−1 for the DTNB-derived product 3-carboxy-4-nitrothiophenoxide. Assays are carried out with and without matrix metalloproteinase inhibitor compounds, and the amount of hydrolysis is compared for a determination of inhibitory activity of the test compounds.
(§3) Several representative compounds have been evaluated for their ability to inhibit various matrix metalloproteinase enzymes. In Table 1, MMP-1FL refers to full length interstitial collagenase; MMP-2FL refers to full length Gelatinase A; MMP-3CD refers to the catalytic domain of stromelysin-1; MMP-7FL refers to full length matrilysin; MMP-9FL refers to full length Gelatinase B; MMP-13CD refers to the catalytic domain of collagenase 3; and MMP-14CD refers to the catalytic domain of MMP-14. Test compounds were evaluated at various concentrations in order to determine their respective IC50 values, the micromolar concentration of compound required to cause a 50% inhibition of the catalytic activity of the respective enzyme.

The target of the next assay is T1, MMP-1FL (Homo sapiens, UniProt P03956).
T1 sequence (P03956 100-469): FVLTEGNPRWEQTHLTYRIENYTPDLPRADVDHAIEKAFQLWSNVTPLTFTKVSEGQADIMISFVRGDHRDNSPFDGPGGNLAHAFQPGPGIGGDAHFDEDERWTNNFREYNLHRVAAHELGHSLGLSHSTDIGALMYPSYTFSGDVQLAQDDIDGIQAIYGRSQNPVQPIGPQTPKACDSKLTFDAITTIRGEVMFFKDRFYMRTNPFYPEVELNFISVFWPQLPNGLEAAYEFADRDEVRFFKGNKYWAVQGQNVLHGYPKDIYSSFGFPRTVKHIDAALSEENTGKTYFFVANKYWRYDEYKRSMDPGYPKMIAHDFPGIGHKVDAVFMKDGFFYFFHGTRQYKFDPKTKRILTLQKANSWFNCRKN
The assay can be described thus: thiopeptolide hydrolysis assay, full length interstitial collagenase. Particulars: thiopeptolide substrate, HEPES pH 7.0, 22° C.
Excerpt: as §1, §2, §3

The target in the next assay is MMP-3CD (Homo sapiens, UniProt P08254). Kind of assay: thiopeptolide hydrolysis assay, catalytic domain of stromelysin-1. Particulars: thiopeptolide substrate, MES buffer pH 6.0.
MMP-3CD, sequence (P08254 100-272 limits assumed): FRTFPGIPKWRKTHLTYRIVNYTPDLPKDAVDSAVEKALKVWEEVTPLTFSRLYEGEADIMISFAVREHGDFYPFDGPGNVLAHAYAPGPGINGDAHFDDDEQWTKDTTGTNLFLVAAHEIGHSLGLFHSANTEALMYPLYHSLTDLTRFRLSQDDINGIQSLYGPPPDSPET
Excerpt: as §1, §2, §3
It should be appreciated that the assay buffer used with MMP-3CD was 50 mM of 2-morpholinoethanesulfonic acid monohydrate (“MES”) at pH 6.0, rather than the HEPES buffer at pH 7.0 described above.

The target of a further assay is MMP-14CD (Homo sapiens, UniProt P50281). The assay can be described thus: thiopeptolide hydrolysis assay, catalytic domain of MMP-14. Particulars: thiopeptolide substrate, HEPES pH 7.0, 22° C.
Excerpt: as §1, §2, §3

The target of a further assay is T2, MMP-7FL (Homo sapiens, UniProt P09237).
T2 sequence (P09237 95-267): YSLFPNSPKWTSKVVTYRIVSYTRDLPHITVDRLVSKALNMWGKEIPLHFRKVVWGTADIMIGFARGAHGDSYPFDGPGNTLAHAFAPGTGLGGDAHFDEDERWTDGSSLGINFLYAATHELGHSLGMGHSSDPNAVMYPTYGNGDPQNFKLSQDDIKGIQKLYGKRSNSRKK
The assay can be described thus: thiopeptolide hydrolysis assay, full length matrilysin. To be noted: thiopeptolide substrate, HEPES pH 7.0, 22° C.
Excerpt: as §1, §2, §3

A further assay addresses MMP-9FL (Homo sapiens, UniProt P14780). The assay can be described thus: thiopeptolide hydrolysis assay, full length Gelatinase B. To be noted: thiopeptolide substrate, HEPES pH 7.0, 22° C.
Excerpt: as §1, §2, §3

A further assay addresses T3, MMP-2FL (Homo sapiens, UniProt P08253).
T3 sequence (P08253 110-660): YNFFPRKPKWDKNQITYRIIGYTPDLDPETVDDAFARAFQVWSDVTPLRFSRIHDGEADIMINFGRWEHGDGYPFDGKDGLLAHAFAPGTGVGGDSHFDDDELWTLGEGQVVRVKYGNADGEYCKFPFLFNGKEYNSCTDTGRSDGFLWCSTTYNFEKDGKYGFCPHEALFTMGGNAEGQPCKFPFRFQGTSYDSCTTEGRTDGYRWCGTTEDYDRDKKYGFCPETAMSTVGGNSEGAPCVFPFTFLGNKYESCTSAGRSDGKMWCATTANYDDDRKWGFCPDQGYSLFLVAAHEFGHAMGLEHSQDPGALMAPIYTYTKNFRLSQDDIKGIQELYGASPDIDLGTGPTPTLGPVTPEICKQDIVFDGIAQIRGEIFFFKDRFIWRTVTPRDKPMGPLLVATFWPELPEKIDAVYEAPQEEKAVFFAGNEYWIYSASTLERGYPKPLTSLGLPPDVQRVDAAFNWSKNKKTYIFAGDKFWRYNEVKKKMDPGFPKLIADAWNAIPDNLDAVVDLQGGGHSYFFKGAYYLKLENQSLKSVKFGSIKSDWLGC
Kind of assay: thiopeptolide hydrolysis assay, full length Gelatinase A. Particulars: thiopeptolide substrate, HEPES pH 7.0, 22° C.
Excerpt: as §1, §2, §3

Structures are written as SMILES. pIC50: −log10 of the molar value.

MMP-9FL, sequence (P14780 94-707): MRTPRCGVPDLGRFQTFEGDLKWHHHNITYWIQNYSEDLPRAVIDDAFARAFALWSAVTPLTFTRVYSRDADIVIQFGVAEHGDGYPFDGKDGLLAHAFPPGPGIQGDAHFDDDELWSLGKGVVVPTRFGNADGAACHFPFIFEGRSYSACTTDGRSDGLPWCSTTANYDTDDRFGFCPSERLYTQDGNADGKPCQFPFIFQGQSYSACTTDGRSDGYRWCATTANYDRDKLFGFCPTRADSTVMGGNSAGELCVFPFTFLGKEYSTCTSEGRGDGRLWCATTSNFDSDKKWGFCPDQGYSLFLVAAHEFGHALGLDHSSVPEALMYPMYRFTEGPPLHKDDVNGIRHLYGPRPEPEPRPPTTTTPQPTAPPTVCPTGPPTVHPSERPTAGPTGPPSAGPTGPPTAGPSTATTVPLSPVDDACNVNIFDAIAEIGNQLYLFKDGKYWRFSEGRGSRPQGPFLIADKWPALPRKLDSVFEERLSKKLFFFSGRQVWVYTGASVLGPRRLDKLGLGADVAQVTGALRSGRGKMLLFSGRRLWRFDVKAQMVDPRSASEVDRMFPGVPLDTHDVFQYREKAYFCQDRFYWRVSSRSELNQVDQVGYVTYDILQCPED

For orientation: pIC50 means −log10 of the IC50, conventionally taken in molar units. Consider `CC1(C)C(C(=O)NO)N(S(=O)(=O)c2ccc3c4c(oc3c2)CCCCC4)CCS1(=O)=O` (stereo not shown) [Example 7, 2,2-Dimethyl-1,1-dioxo-4-(6,7,8,9-tetrahydro-5H-10-oxa-benzo{a}azulene-2-sulfonyl)-1l^6-thiomorpholine-3-carboxylic Acid Hydroxyamide], for which the pIC50 against MMP-13CD was 8.21; against MMP-1FL it was 6.01; against MMP-3CD, 7.82; against MMP-14CD, 7.28; against MMP-7FL, 6.38; against MMP-9FL, 6.35. Besides, at MMP-2FL, the pIC50 was 6.66.

For `CC1(C)SCCN(S(=O)(=O)c2ccc3c4c(oc3c2)CCCC4)[C@H]1C(=O)NO` [Example 4, (S)-2,2-Dimethyl-4-(6,7,8,9-tetrahydro-dibenzofuran-3-sulfonyl)thiomorpholine-3-carboxylic Hydroxamide], the pIC50 at MMP-13CD is 7.92; against MMP-1FL, 7.16; against MMP-3CD it was 8.05; against MMP-14CD it was 7.28; against MMP-7FL it was 6.64; at MMP-9FL it was 6.68. The compound further gave a negative-log IC50 (pIC50) against MMP-2FL of 7.09.

Take `CC1(C)C(C(=O)O)N(S(=O)(=O)c2ccc3c4c(oc3c2)CCCCC4)CCS1(=O)=O` (stereo not shown) [Example 6, 2,2-Dimethyl-1,1-dioxo-4-(6,7,8,9-tetrahydro-5H-10-oxa-benzo{a}azulene-2-sulfonyl)-1l^6-thiomorpholine-3-carboxylic Acid]: the pIC50 is 5.68 against MMP-13CD; 4.40 against MMP-1FL; 7.43 against MMP-3CD; 7.03 against MMP-14CD; 4.39 against MMP-7FL; 4.15 at MMP-9FL. On MMP-2FL, this compound had a pIC50 of 6.22.

On to `CC1(C)SCCN(S(=O)(=O)c2ccc3c4c(oc3c2)CCCC4)[C@H]1C(=O)O` [Example 3, (S)-2,2-Dimethyl-4-(6,7,8,9-tetrahydro-dibenzofuran-3-sulfonyl)thiomorpholine-3-carboxylic Acid], for which the negative logarithm of the IC50 (pIC50) was 5.88 against MMP-13CD; 5.16 against MMP-1FL; 7.41 at MMP-3CD; 6.82 at MMP-14CD; 4.00 against MMP-7FL; 4.27 against MMP-9FL. The compound further had a pIC50 against MMP-2FL of 6.41.
